Source: article PMC9289672, “Optimization of Antibacterial Activity in Tibetan Swine α-Helix Peptide TP by Site-Directed Mutagenesis” (Frontiers in Microbiology, 2022)
Where no end group is shown, it is not given here.

Columns and labels:
[1] = test system: Enterococcus faecalis ATCC 29212
Source text: (§1) The bacteria strains Escherichia coli ATCC 25922, Escherichia coli UB1005, Salmonella typhimurium ATCC 14028, Salmonella typhimurium C7731, Pseudomonas aeruginosa ATCC 27853, Pseudomonas aeruginosa PAO1, Staphylococcus aureus ATCC 29213, Staphylococcus aureus ATCC 25923, Methicillin-resistant Staphylococcus aureus (MRSA) 43300, Enterococcus faecalis ATCC 29212, and Staphylococcus epidermidis ATCC 12228 were obtained from the College of Veterinary Medicine, Northeast Agricultural University (Harbin, China).
(§2) The bacteria were cultured overnight in the MHB medium and transferred to the new MHB the next day until the bacteria reached the exponential growth stage. The bacteria were diluted with MHB to 2 × 10^5 CFU/ml. About 50 μl of polypeptide and equal volume of bacterial suspension was added to a 96-well plate to give the final concentration of polypeptide between 1 and 128 μm. The last two columns are negative (MHB only) and positive (bacterial and MHB) controls and incubated at 37°C for 18–24 h. Optical density was measured at an absorbance wavelength of 492 nm using a microplate reader (Tecan GENios F129004, Tecan, Austria). At least three independent measurements were taken. Each trial was conducted two times in parallel. A total of three independent assays were carried out.

[2] = test system: Escherichia coli ATCC 25922
Source text: as §1, §2

Escherichia coli UB1005 = conditions: MHB, bacteria diluted to 2 × 10^5 CFU/ml, peptide 1-128 μm, 37°C 18-24 h, OD 492 nm; three independent assays, two in parallel
Source text: as §1, §2

[3] = test system: Methicillin-resistant Staphylococcus aureus (MRSA) 43300; conditions: Methicillin-resistant 43300
Source text: as §1, §2

[4] = test system: Pseudomonas aeruginosa ATCC 27853
Source text: as §1, §2

[5] = test system: Pseudomonas aeruginosa PAO1
Source text: as §1, §2

[6] = test system: Salmonella typhimurium ATCC 14028
Source text: as §1, §2

[7] = test system: Salmonella typhimurium C7731; conditions: MHB, bacteria diluted to 2 × 10^5 CFU/ml, peptide 1-128 μm, 37°C 18-24 h, OD 492 nm; three independent assays, two in parallel
Source text: as §1, §2

[8] = test system: Staphylococcus aureus ATCC 25923
Source text: as §1, §2

[9] = test system: Staphylococcus aureus ATCC 29213
Source text: as §1, §2

[10] = test system: Staphylococcus epidermidis ATCC 12228
Source text: as §1, §2

Gram-negative bacteria = assay: Geometric mean of MIC and therapeutic index; format: cell-based; conditions: MHC/GM; 128 μm used when 50% hemolysis not observed at 128 μm
Experimental: as §2
(§3) Trp is a hydrophobic amino acid with aromatic side chains. It is a special amino acid in peptide design. Previous studies have pointed out that introducing amino acids will also bring toxicity while improving activity. […] For further evaluating the cell selectivity of the peptides, we also calculated the SI which defined as the ratio of MHC to the geometric mean (GM) (Dufourc, [2008]).

Gram-positive bacteria = assay: Geometric mean of MIC and therapeutic index; format: cell-based; conditions: MHC/GM; 128 μm used when 50% hemolysis not observed at 128 μm
Experimental: as §2, §3

all strains in Table 2 = assay: Geometric mean of MIC and therapeutic index; format: cell-based; conditions: MHC/GM; 128 μm used when 50% hemolysis not observed at 128 μm
Experimental: as §2
Trp is a hydrophobic amino acid with aromatic side chains. It is a special amino acid in peptide design. Previous studies have pointed out that introducing amino acids will also bring toxicity while improving activity. Therefore, at the beginning of the design, we predicted that selecting Trp as hydrophobic amino acid to substitute H-H position would bring certain toxicity to the peptide. Thus, as expected, the introduction of Trp increases the activity and toxicity of these peptides. […] Meanwhile, the virulence of TP(i+4) 1&2&5&6 and TP(i+4) 1&2&6&7 was lower than that of TP(i+4) 1&2&5&7. We infer that the location of hydrophobic centers can effectively reduce peptide toxicity by Trp substitution. For further evaluating the cell selectivity of the peptides, we also calculated the SI which defined as the ratio of MHC to the geometric mean (GM) (Dufourc, [2008]).

[11] = test system: hRBCs (human red blood cells)
Experimental: The cytotoxicity of each peptide was assessed with IPEC-J12 and HEK 293T cells. […] Each trial was conducted two times in parallel. A total of three independent assays were carried out.

Row | Substance | MIC, E. faecalis 29212 [1] [µM] | MIC, E. coli 25922 [2] [µM] | MIC, E. coli UB1005 (Escherichia coli UB1005) [µM] | MIC, S. aureus 43300 [3] [µM] | MIC, P. aeruginosa 27853 [4] [µM] | MIC, P. aeruginosa PAO1 [5] [µM] | MIC, S. typhimurium 14028 [6] [µM] | MIC, S. typhimurium 7731 [7] [µM] | MIC, S. aureus 25923 [8] [µM] | MIC, S. aureus 29213 [9] [µM] | MIC, S. epidermidis 12228 [10] [µM] | Therapeutic index (TI), Gram-negative bacteria (Gram-negative bacteria) | Therapeutic index (TI), Gram-positive bacteria (Gram-positive bacteria) | Therapeutic index (TI) / selectivity index (SI), All (all strains in Table 2) | MHC (concentration of peptide that causes hemolysis of 50% of human red blood cells) [11] [µM]
1 | ASVVNKLTKKVAKLLK-NH2 [TP(i+4) 2&4] | >128 | 8 | 8 | >128 | 32 | 8 | 64 | 16 | >128 | >128 | >128 | 8.00 | 1.00 | 2.83 | >128
2 | AKVVNKLTGGVAGLLK-NH2 [TP(i+4) 3] | >128 | >128 | >128 | >128 | >128 | >128 | >128 | >128 | >128 | >128 | >128 | 1.00 | 1.00 | 1.00 | >128
3 | ASVVKKLTKGVAGLLK-NH2 [TP(i+4) 1] | >128 | 16 | 16 | >128 | 64 | 64 | 128 | 64 | >128 | >128 | >128 | 2.83 | 1.00 | 1.68 | >128
4 | AKVVNKLTKKVAKLLK-NH2 [TP(i+4) 2&3&4] | >128 | 16 | 16 | >128 | 128 | 8 | 64 | 64 | >128 | >128 | >128 | 4.00 | 1.00 | 2.00 | >128
5 | AKVVKKLTKGVAKLLK-NH2 [TP(i+4) 1&2&3] | >128 | 32 | 8 | >128 | 64 | 16 | 128 | 64 | >128 | >128 | >128 | 3.56 | 1.00 | 1.89 | >128
6 | ASVVNKLTGGVAGLLK-NH2 [TP, reference compound] | >128 | >128 | >128 | >128 | >128 | >128 | >128 | >128 | >128 | >128 | >128 | 1.00 | 1.00 | 1.00 | >128
7 | ASVVKKLTKKVAKLLK-NH2 [TP(i+4) 1&2&4] | >128 | 4 | 4 | >128 | 32 | 8 | 64 | 32 | >128 | >128 | >128 | 8.90 | 1.00 | 2.98 | >128
8 | ASVVNKLTKGVAKLLK-NH2 [TP(i+4) 2] | >128 | 16 | 8 | >128 | 64 | 32 | 128 | 64 | >128 | >128 | >128 | 3.56 | 1.00 | 1.89 | >128
